Measurements taken from article PMC3005307 (Chemistry & biology, 2010).
Entries after “also recorded” stand apart in the source; their conditions may differ.

How the values were obtained:
TcdB holotoxin [1] = format: cell-based, human
TcdB CPD = TcdB CPD (Clostridioides difficile, UniProt P18177); format: biochemical, Clostridium difficile; conditions: autocleavage assay
TcdB holotoxin [2] = format: cell-based, human; remark: listed apart in the source

Sequence of TcdB CPD (P18177 1-804 limits assumed): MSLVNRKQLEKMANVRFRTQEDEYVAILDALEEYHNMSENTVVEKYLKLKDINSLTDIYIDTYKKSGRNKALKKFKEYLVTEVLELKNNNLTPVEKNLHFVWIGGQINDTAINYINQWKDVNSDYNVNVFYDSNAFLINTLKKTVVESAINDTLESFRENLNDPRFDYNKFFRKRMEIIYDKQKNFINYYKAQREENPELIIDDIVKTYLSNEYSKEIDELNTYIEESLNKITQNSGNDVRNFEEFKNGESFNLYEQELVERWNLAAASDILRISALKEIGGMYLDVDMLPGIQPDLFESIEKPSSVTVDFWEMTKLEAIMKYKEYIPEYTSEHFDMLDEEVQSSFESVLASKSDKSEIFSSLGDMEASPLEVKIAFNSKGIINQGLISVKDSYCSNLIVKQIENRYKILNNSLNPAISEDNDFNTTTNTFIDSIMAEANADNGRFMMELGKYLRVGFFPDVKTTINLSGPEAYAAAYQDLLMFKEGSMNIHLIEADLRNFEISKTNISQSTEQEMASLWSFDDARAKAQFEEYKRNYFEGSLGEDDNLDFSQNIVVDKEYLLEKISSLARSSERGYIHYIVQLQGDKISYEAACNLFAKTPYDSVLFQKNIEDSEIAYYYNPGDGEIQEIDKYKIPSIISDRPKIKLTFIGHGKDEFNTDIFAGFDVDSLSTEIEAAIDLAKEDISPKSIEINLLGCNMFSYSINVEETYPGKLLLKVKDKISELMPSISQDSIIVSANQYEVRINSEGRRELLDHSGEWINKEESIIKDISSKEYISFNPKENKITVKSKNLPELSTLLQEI

## JPM-OEt
TcdB holotoxin [1]
  effect on Rac1 glucosylation by holotoxin: no effect on toxin function
TcdB CPD
  inhibition of CPD activity: poorly inhibit CPD activity
TcdB holotoxin [2]
  effect on holotoxin-mediated cell rounding: failed to inhibit toxin function; also recorded: no effect on toxin function
